Laboratory results from patent US20240000878A1 (priority 2022, published 2024).
≈ marks a conversion by molar mass, not a printed value. Where “and” joins values, the source holds several entries; their conditions need not be identical. Equal values may be shown once. Where a name gives a salt, the structure may show the parent alone.

Key:
Experiment in all cases: microbe, parasite or virus in culture
Assay type in all cases: cell-based
[1] = tested on: Influenza A/CA/07/09 (H1N1); conditions: for LRV (log reduction value): average reduction of virus vs average virus control
[2] = tested on: Respiratory Syncytial Virus (RSV) strain A2; conditions: for LRV (log reduction value): average reduction of virus vs average virus control; for antiviral activity against RSV (in words): summary of Table 2
[3] = tested on: SARS-CoV-2 strain USA/PHC658/2021 (B.1.617.2; delta); conditions: for LRV (log reduction value): average reduction of virus vs average virus control

Compound: OC[C@@H](O)[C@@H](O)CO [Erythritol]
- LRV (log reduction value) ([1]; concentration 5 %, day 3): 3.17
- antiviral activity against H1N1 (in words) ([1]; summary of Table 1): showed antiviral activity
- LRV (log reduction value) ([2]; concentration 5 %, day 5): 1.84
- LRV (log reduction value) ([3]; concentration 5 %, day 6): 3.29

Compound: CN(C)CCC(c1ccc(Cl)cc1)c1ccccn1 (centres unmarked) [Chlorpheniramine Maleate, reference compound]
- LRV (log reduction value) ([1]; concentration 1 %, day 3): 6.02
- Log10 CCID50 virus per 0.2 mL ([2]; concentration 1 %): 1.50
- LRV (log reduction value) ([2]; concentration 1 %, day 5): 2.99
- Log10 CCID50 virus per 0.2 mL ([3]; concentration 1 %): 2.30 and 2.50
- LRV (log reduction value) ([3]; concentration 1 %, day 6): 2.69

Compound: OC[C@@H](O)[C@@H](O)[C@H](O)[C@@H](O)CO [Sorbitol]
- LRV (log reduction value) ([1]; concentration 5 %, day 3): 1.47
- Log10 CCID50 virus per 0.2 mL ([2]; concentration 5 %): 2.00
- LRV (log reduction value) ([2]; concentration 5 %, day 5): 2.49
- antiviral activity against RSV (in words) [2]: antiviral activity
- Log10 CCID50 virus per 0.2 mL ([3]; concentration 5 %): 1.50 and 1.67
- LRV (log reduction value) ([3]; concentration 5 %, day 6): 3.5

Compound: OC[C@@H](O)[C@H](O)[C@@H](O)CO [Xylitol]
- Log10 CCID50 virus per 0.2 mL ([1]; concentration 5 %): 6.00
- LRV (log reduction value) ([1]; concentration 5 %, day 3): 1.27
- LRV (log reduction value) ([2]; concentration 5 %, day 5): 2.65
- antiviral activity against RSV (in words) [2]: antiviral activity
- LRV (log reduction value) ([3]; concentration 5 %, day 6): 3.84

Compound: CCC(CC)COC(=O)[C@H](C)N[P@](=O)(OC[C@H]1O[C@@](C#N)(c2ccc3c(N)ncnn23)[C@H](O)[C@@H]1O)Oc1ccccc1 [Remdesivir]
- EC90 ([3]; Severe acute respiratory syndrome coronavirus 2, 144 h): 0.12 µg/mL (≈ 0.199 µM)
- Log10 CCID50 virus per 0.2 mL ([3]; concentration 5 μg/ml): 0.67
- SI ([3]; with the EC90, day 6): SI >42

Compound: NC(=O)c1ncn([C@@H]2O[C@H](CO)[C@@H](O)[C@H]2O)n1 [Ribavirin, reference compound]
- EC90 ([1]; Influenza A virus, H1N1, 72 h): 3.1 µg/mL (≈ 12.7 µM)
- Log10 CCID50 virus per 0.2 mL ([1]; concentration 100 μg/ml): 0.67
- SI ([1]; with the EC90, day 3): SI >32
- Log10 CCID50 virus per 0.2 mL ([2]; concentration 100 μg/ml): 1.30
- EC90 ([2]; human respiratory syncytial virus, 120 h, 90% effective concentration (reduce virus yield by 1 log10), regression analysis, day 5): 4.6 µg/mL (≈ 18.8 µM)
- SI ([2]; with the EC90, day 5): SI >22
